Laboratory results from US9107396B2, “Stabilized synthetic brood pheromone and race-specific ratios of components for manipulating the behavior and physiology of honey bees” (OMS Investments, Inc., priority 2006, dated 2015).

Assay: Chemical stability of simplified brood pheromone ester blends exposed to air, capillary gas chromatography
Assay type: physicochemical
Conditions: for time for which the component remained intact: with antioxidant stabilizer tertiary-butylhydroquinone; for proportional composition of the total blend at start: two-week test; for percentage composition at start / percentage composition after 72 weeks: unstabilized five-component ethyl ester blend; for percentage composition at start: 72-week test
Protocol: Short-term and long-term stability studies were conducted, with simplified blends of potentially unstable brood pheromone components mixed in approximately the same proportions as in Example 1. Short-term evaluation for a two-week duration was done on blends of methyl oleate, methyl linoleate and methyl linolenate, and ethyl oleate, ethyl linoleate and ethyl linolenate, each with and without tertiary-butylhydroquinone. Twenty-week tests were done with identical blends as for the two-week experiments, but 72-week tests had methyl and ethyl palmitate and stearate added in the appropriate proportions to their respective blends. Approximately 250 mg of a blend was placed in a 4 mL (15×45 mm) plastic vial (Chromatographic Specialties) fitted with a diffusion insert screw cap (Agilent Technologies) with a 1 mm diameter hole to allow air circulation over the sample. All blends were continuously held at a constant temperature of 30° C.
For analysis by capillary gas chromatography, approximately 1 mg of a blend was dissolved in 1 mL of diethyl ether, and a 1 μL aliquot of each extract was analyzed. Analyses were done at time zero and after the given duration of exposure to air at 30° C., using a Hewlett Packard HP5890 gas chromatograph equipped with a flame ionization detector and a 30 m long BPX-70 capillary column (J&W Scientific). The injector and detector temperatures were 260° C. and 285° C., respectively. The temperature program was 80° C. rising at 5° C. per min for 24 min to 200° C., and then rising at 20° C. per min for 3 min to 260° C.
Two-week results are given for methyl and ethyl esters (FIGS. 1 and 2), while long-term 20-week and 72-week results are given for only ethyl esters (FIGS. 3 and 4). Long-term results for methyl esters were virtually identical to those for the ethyl esters.

[1] = unstabilized blend, after two weeks exposure to air
[2] = unstabilized blend, before exposure

Structure (SMILES)	decrease in amount of component in the unstabilized blend (2 weeks) [%]	time for which the component remained intact [weeks]	percentage composition at start (before exposure) [%]	percentage composition after 72 weeks [%]	other results
CCCCC/C=C\C/C=C\CCCCCCCC(=O)OCC [ethyl linoleate]	74	72			component remaining in the unstabilized blend after 20 weeks (3360 h): no ethyl linoleate; component remaining in the unstabilized blend after 72 weeks (12096 h): complete breakdown
CC/C=C\C/C=C\C/C=C\CCCCCCCC(=O)OCC [ethyl linolenate]		72			decrease in amount of component in the unstabilized blend [1]: 94%; component remaining in the unstabilized blend after 20 weeks (unstabilized ethyl ester blend, 20 weeks): no ethyl linolenate remained; component remaining in the unstabilized blend after 72 weeks (unstabilized ethyl ester blend, 72 weeks): complete breakdown
CCCCCCCC/C=C\CCCCCCCC(=O)OCC [ethyl oleate]		72	24	10	proportional composition of the total blend after two weeks [1]: 66%; proportional composition of the total blend at start [2]: 40%; proportion of the total blend at start (unstabilized ethyl ester blend, 20-week test, before exposure): 37%; proportion of the total blend after 20 weeks (unstabilized ethyl ester blend, after 20 weeks): 43%
CCCCCCCCCCCCCCCC(=O)OCC [ethyl palmitate]			8	20	
CCCCCCCCCCCCCCCCCC(=O)OCC [ethyl stearate]			23	57	
CCCCC/C=C\C/C=C\CCCCCCCC(=O)OC [methyl linoleate]	85	72			
CC/C=C\C/C=C\C/C=C\CCCCCCCC(=O)OC [methyl linolenate]	90	72			
CCCCCCCC/C=C\CCCCCCCC(=O)OC [methyl oleate]		72			proportional composition of the total blend after two weeks [1]: 82%; proportional composition of the total blend at start [2]: 48%
